The values below are quoted from earlier work in patent US8916194B2 (Lupin Limited, priority 2010, dated 2014).

For this series the following is noted: in vivo.

As usually defined, the half-life is how long it takes for the measured level to halve. `CCN(CC)C(=O)C1(c2ccccc2)CC1CN` (stereo not drawn) [Milnacipran, cis-2-amino methyl-N, N-diethyl-1-phenyl cyclopropane carboxamide]: the half-life was about 8 h.
